Measured values: ChEMBL document CHEMBL3044797 (Crop Prot, 2008)
In brackets after ≈: the same amount, converted by molar mass.

How the values were obtained:
Type in all cases: functional, organism-based
Phytophthora capsici = assay: Fungicidal activity against Phytophthora capsici assessed as inhibition of mycelial growth
Dothiorella gregaria = assay: Fungicidal activity against Dothiorella gregaria assessed as inhibition of mycelial growth
Fusarium graminearum [1] = assay: Fungicidal activity against compound-sensitive Fusarium graminearum isolate
Pyricularia grisea = assay: Fungicidal activity against Magnaporthe grisea assessed as inhibition of mycelial growth
Colletotrichum truncatum = assay: Fungicidal activity against Colletotrichum capsici assessed as inhibition of mycelial growth
Alternaria solani = assay: Fungicidal activity against Alternaria solani assessed as inhibition of mycelial growth
Fusarium oxysporum = assay: Fungicidal activity against Fusarium oxysporum assessed as inhibition of mycelial growth
Botrytis cinerea = assay: Fungicidal activity against Botryotinia fuckeliana assessed as inhibition of mycelial growth
Sclerotinia sclerotiorum = assay: Fungicidal activity against Sclerotinia sclerotiorum assessed as inhibition of mycelial growth
[2] = system: Pseudoperonospora cubensis; assay: Fungicidal activity against Pseudoperonospora cubensis zoosporangia isolate obtained from downy mildew diseased cucumber plant assessed as reduction in mildew development measured after 7 to 10 days
Fusarium verticillioides = assay: Fungicidal activity against Fusarium verticillioides assessed as inhibition of mycelial growth
Blumeria graminis = assay: Fungicidal activity against Blumeria graminis infested wheat plant in greenhouse assessed as reduction in powdery mildew formation measured after 10 days; settings: 240 h
Fusarium graminearum [3] = assay: Fungicidal activity against Wind-type carbendazim-sensitive Fusarium graminearum isolate

CCOC(=O)/C(C#N)=C(/N)c1ccccc1
EC50 (Phytophthora capsici): 111 µg/mL (≈ 515 µM) | EC50 (Dothiorella gregaria): 39.7 µg/mL (≈ 184 µM) | EC50 (Fusarium graminearum [1]): 0.141 µg/mL (≈ 0.652 µM) | EC50 (Pyricularia grisea): 77.1 µg/mL (≈ 356 µM) | EC50 (Colletotrichum truncatum): 28.2 µg/mL (≈ 130 µM) | EC50 (Alternaria solani): 133 µg/mL (≈ 616 µM) | EC50 (Fusarium oxysporum): 3.56 µg/mL (≈ 16.5 µM) | EC50 (Botrytis cinerea): 72.2 µg/mL (≈ 334 µM) | EC50 (Sclerotinia sclerotiorum): 72.1 µg/mL (≈ 333 µM) | EC50 [2]: 12.7 µg/mL (≈ 58.9 µM) | EC50 (Fusarium verticillioides): 0.459 µg/mL (≈ 2.12 µM) | EC50 (Blumeria graminis): > 1000 µg/mL | EC50 (Fusarium graminearum [3]): 0.108 µg/mL (≈ 0.499 µM)
